Source: patent publication US12310364B2, “Safened compositions comprising pyridine carboxylate herbicides and cloquintocet” (Corteva Agriscience LLC, priority 2018, dated 2025)
Where “and” joins values, the source holds several entries; their conditions need not be identical. Equal values may be shown once.

How the values were obtained:
Assay type in all cases: in vivo
[1] = system: large crabgrass (DIGSA, Digitaria sanguinalis); assay: Greenhouse postemergence trial, visual injury on large crabgrass; conditions: Table 19
Excerpt: (§1) Greenhouse Trial Methodology—Evaluation of Postemergence Herbicidal Safening in Crops
(§2) Seeds of the desired test plant species were planted in a 90:10% v/v (volume/volume) mixture of PRO-MIX® BX (Premier Tech Horticulture, Quakertown, PA, USA) and PROFILE® GREENS GRADE™ (Profile Products LLC, Buffalo Grove, IL, USA) planting mixture, which typically has a pH of 5.2 to 6.2 and an organic matter content of at least 50 percent, in plastic pots with a surface area of 103.2 square centimeters (cm^2). When required to ensure good germination and healthy plants, a fungicide treatment and/or other chemical or physical treatment was applied. The plants were grown for 7-36 days (d) in a greenhouse with an approximate 14-hour (h) photoperiod which was maintained at about 23° C. during the day and 22° C. during the night. Nutrients and water were added on a regular basis and supplemental lighting was provided with overhead metal halide 1000-Watt lamps as necessary. The plants were employed for testing when they reached the second or third true leaf stage.
(§3) Emulsifiable concentrates of each of each pyridine carboxylate herbicide (Compound A or Compound B) were prepared at 100 grams acid equivalent per liter (g ae/L). An aliquot of each emulsifiable concentrate was placed in a 25 mL glass vial and diluted with an aqueous mixture of 1.25% (v/v) ACTIROB® B esterified rapeseed oil (Bayer Crop Science, Research Triangle Park, NC, USA) or MSO® Concentrate with LECI-TECH® methylated soybean oil (Loveland Products, Loveland, CO, USA) to obtain concentrated stock solutions at the highest application rate for each herbicide, based upon a 12 milliliter (mL) application volume at a rate of 187 liters per hectare (L/ha). The concentrated stock solutions were further diluted with an aqueous mixture of 1.25% v/v ACTIROB® B or MSO® Concentrate with LECI-TECH® to obtain stock solutions at reduced application rates for each herbicide. Spray solutions of the herbicide combinations (Compound A or Compound B plus safener) were prepared by adding weighed amounts or aliquots of the safener to the stock solutions of Compound A or Compound B to form 12-mL spray solutions in two-way combinations. […]
(§4) The treated plants and control plants were placed in a greenhouse as described above and watered by sub-irrigation to prevent wash-off of the test compounds. After 20-22 d, the condition of the test plants as compared with that of the control plants was determined visually and scored on a scale of 0 to 100 percent where 0 corresponds to no injury and 100 corresponds to complete kill.

[2] = system: Triticum aestivum (winter wheat), TRZAW; assay: Greenhouse postemergence safening trial, visual injury on winter wheat
Procedure: (§5) Greenhouse Trial Methodology-Evaluation of Postemergence Herbicidal […] in Crops […] When required to ensure good germination and healthy plants, a fungicide treatment and/or other chemical or physical treatment was applied. The plants were grown for 7-36 days (d) in a greenhouse with an approximate 14-hour (h) photoperiod which was maintained at about 23° C. during the day and 22° C. during the night. Nutrients and water were added on a regular basis and supplemental lighting was provided with overhead metal halide 1000-Watt lamps as necessary. The plants were employed for testing when they reached the second or third true leaf stage. Emulsifiable concentrates of each of each pyridine carboxylate herbicide (Compound A or Compound B) were prepared at 100 grams acid equivalent per liter (g ae/L). […] The concentrated stock solutions were further diluted with an aqueous mixture of 1.25% […] or MSO® Concentrate with LECI-TECH® to obtain stock solutions at reduced application rates for each herbicide. Spray solutions of the herbicide combinations (Compound A or Compound B plus safener) were prepared by adding weighed amounts or aliquots of the safener to the stock solutions of Compound A or Compound B to form 12-mL spray solutions in two-way combinations. […] Control plants were sprayed in the same manner with the solvent blank. All herbicide (component a) application rates are given as “g ae/ha” and all safener (component b) application rates are given as “g ai/ha.” The treated plants and control plants were placed in a greenhouse as described above and watered by sub-irrigation to prevent wash-off of the test compounds.

[3] = system: Canada thistle (CIRAR, Cirsium arvense); assay: Greenhouse postemergence trial, visual injury on Canada thistle; conditions: Table 19
Excerpt: as §1, §2, §3, §4

[4] = system: Triticum aestivum (spring wheat), TRZAS; assay: Greenhouse postemergence safening trial, visual injury on spring wheat
Procedure: as §5

[5] = system: Sinapis arvensis (wild mustard), SINAR; assay: Greenhouse postemergence trial, visual injury on wild mustard
Excerpt: as §1, §2
Emulsifiable concentrates of each of each pyridine carboxylate herbicide (Compound A or Compound B) were prepared at 100 grams acid equivalent per liter (g ae/L). An aliquot of each emulsifiable concentrate was placed in a 25 mL glass vial and diluted with an aqueous mixture of 1.25% (v/v) ACTIROB® B esterified rapeseed oil (Bayer Crop Science, Research Triangle Park, NC, USA) or MSO® Concentrate with LECI-TECH® methylated soybean oil (Loveland Products, Loveland, CO, USA) to obtain concentrated stock solutions at the highest application rate for each herbicide, based upon a 12 milliliter (mL) application volume at a rate of 187 liters per hectare (L/ha). The concentrated stock solutions were further diluted with an aqueous mixture of 1.25% v/v ACTIROB® B or MSO® Concentrate with LECI-TECH® to obtain stock solutions at reduced application rates for each herbicide. Spray solutions of the herbicide combinations (Compound A or Compound B plus safener) were prepared by adding weighed amounts or aliquots of the safener to the stock solutions of Compound A or Compound B to form 12-mL spray solutions in two-way combinations.
The spray solutions were applied to the plant material with an overhead Mandel track sprayer equipped with 8002E nozzles calibrated to deliver 187 L/ha over an application area of 0.503 square meters (m^2) at a spray height of 18 inches (43 centimeters (cm)) above the average plant canopy. Control plants were sprayed in the same manner with the solvent blank. All herbicide (component a) application rates are given as “g ae/ha” and all safener (component b) application rates are given as “g ai/ha.”
as §4

[6] = system: velvetleaf (ABUTH, Abutilon theophrasti); assay: Greenhouse postemergence trial, visual injury on velvetleaf; conditions: Table 19
Excerpt: as §1, §2, §3, §4

[7] = system: Avena sativa (common oat), AVESA; assay: Greenhouse postemergence safening trial, visual injury on common oat
Procedure: as §5

[8] = system: Brassica napus (winter rape), BRSNW; assay: Greenhouse postemergence trial, visual injury on winter rape
Procedure: as §5

[9] = system: barnyardgrass (ECHCG, Echinochloa crus-galli); assay: Greenhouse postemergence trial, visual injury on barnyardgrass; conditions: Table 19
Excerpt: as §1, §2, §3, §4

[10] = Compound A 20 g/ha alone, Table 15
[11] = Compound A 20 g/ha alone, Table 19
[12] = Compound A 40 g/ha alone, Table 14
[13] = Compound A 40 g/ha alone, Table 16
[14] = CQC-mexyl 5 g/ha alone, Table 15
[15] = CQC-mexyl 10 g/ha alone, Table 15
[16] = CQC-mexyl 10 g/ha alone, Table 16
[17] = CQC-mexyl 20 g/ha alone, Table 15
[18] = CQC-mexyl 20 g/ha alone, Table 16
[19] = CQC-mexyl 20 g/ha alone, Table 19
[20] = CQC-mexyl 40 g/ha alone, Table 14
[21] = CQC-mexyl 40 g/ha alone, Table 15
[22] = CQC-mexyl 40 g/ha alone, Table 16
[23] = CQC-mexyl 40 g/ha alone, Table 19
[24] = CQC-mexyl 80 g/ha alone, Table 16
[25] = CQC-mexyl 80 g/ha alone, Table 19

SMILES: N#CCOC(=O)c1nc(-c2ccc3cc[nH]c3c2F)c(F)c(N)c1Cl [Compound A, cyanomethyl 4-amino-3-chloro-5-fluoro-6-(7-fluoro-1H-indol-6-yl)pyridine-2-carboxylate]
- % visual injury, Ob ([1]; Compound A 20 g/ha alone): 30%
- % visual injury, Ob [2, 10]: 20%
- % visual injury, Ob [2, 11]: 25%
- % visual injury, Ob [2, 12]: 35%
- % visual injury, Ob [2, 13]: 35%
- % visual injury, Ob ([2]; herbicide alone 20 g/ha): 20%
- % visual injury Δ ([2]; herbicide alone 40 g/ha): 0%
- % visual injury, Ob ([2]; herbicide alone 40 g/ha): 35% and 25%
- % visual injury, Ob ([3]; Compound A 20 g/ha alone): 95%
- % visual injury, Ob [4, 10]: 15%
- % visual injury, Ob [4, 12]: 45%
- % visual injury, Ob [4, 13]: 40%
- % visual injury, Ob ([4]; herbicide alone 20 g/ha): 15% and 25%
- % visual injury, Ob ([4]; herbicide alone 40 g/ha): 45% and 40% and 23%
- % visual injury, Ob [5, 13]: 99%
- % visual injury, Ob ([5]; herbicide alone 40 g/ha): 99%
- % visual injury, Ob ([6]; Compound A 20 g/ha alone): 95%
- % visual injury, Ob [7, 12]: 0%
- % visual injury, Ob ([7]; herbicide alone 40 g/ha): 0%
- % visual injury, Ob [8, 10]: 70%
- % visual injury, Ob [8, 11]: 85%
- % visual injury, Ob ([8]; herbicide alone 20 g/ha): 70% and 95%
- % visual injury, Ob ([9]; Compound A 20 g/ha alone): 85%

SMILES: CCCCCC(C)OC(=O)COc1ccc(Cl)c2cccnc12 (stereo not shown) [CQC-mexyl, cloquintocet-mexyl]
- % visual injury, Ob ([1]; CQC-mexyl 20 g/ha alone): 0%
- % visual injury, Ob ([1]; CQC-mexyl 40 g/ha alone): 0%
- % visual injury, Ob ([1]; CQC-mexyl 80 g/ha alone): 0%
- % visual injury, Ob [2, 14]: 0%
- % visual injury, Ob [2, 15]: 0%
- % visual injury, Ob [2, 16]: 0%
- % visual injury, Ob [2, 17]: 0%
- % visual injury, Ob [2, 18]: 0%
- % visual injury, Ob [2, 19]: 0%
- % visual injury, Ob [2, 20]: 0%
- % visual injury, Ob [2, 21]: 0%
- % visual injury, Ob [2, 22]: 0%
- % visual injury, Ob [2, 23]: 0%
- % visual injury, Ob [2, 24]: 0%
- % visual injury, Ob [2, 25]: 0%
- % visual injury, Ob ([2]; safener alone 40 g/ha): 0%
- % visual injury, Ob ([3]; CQC-mexyl 20 g/ha alone): 0%
- % visual injury, Ob ([3]; CQC-mexyl 40 g/ha alone): 0%
- % visual injury, Ob ([3]; CQC-mexyl 80 g/ha alone): 0%
- % visual injury, Ob [4, 14]: 0%
- % visual injury, Ob [4, 15]: 0%
- % visual injury, Ob [4, 16]: 0%
- % visual injury, Ob [4, 17]: 0%
- % visual injury, Ob [4, 18]: 0%
- % visual injury, Ob [4, 20]: 0%
- % visual injury, Ob [4, 21]: 0%
- % visual injury, Ob [4, 22]: 0%
- % visual injury, Ob [4, 24]: 0%
- % visual injury, Ob ([4]; safener alone 5 g/ha): 0%
- % visual injury, Ob ([4]; safener alone 10 g/ha): 0%
- % visual injury, Ob ([4]; safener alone 20 g/ha): 0%
- % visual injury, Ob ([4]; safener alone 40 g/ha): 0%
- % visual injury, Ob [5, 16]: 0%
- % visual injury, Ob [5, 18]: 0%
- % visual injury, Ob [5, 22]: 0%
- % visual injury, Ob [5, 24]: 0%
- % visual injury, Ob ([5]; safener alone 5 g/ha): 0%
- % visual injury, Ob ([5]; safener alone 10 g/ha): 0%
- % visual injury, Ob ([5]; safener alone 20 g/ha): 0%
- % visual injury, Ob ([5]; safener alone 40 g/ha): 0%
- % visual injury, Ob ([6]; CQC-mexyl 20 g/ha alone): 0%
- % visual injury, Ob ([6]; CQC-mexyl 40 g/ha alone): 0%
- % visual injury, Ob ([6]; CQC-mexyl 80 g/ha alone): 0%
- % visual injury, Ob [7, 20]: 0%
- % visual injury, Ob ([7]; safener alone 40 g/ha): 0%
- % visual injury, Ob [8, 14]: 0%
- % visual injury, Ob [8, 15]: 0%
- % visual injury, Ob [8, 17]: 0%
- % visual injury, Ob [8, 19]: 0%
- % visual injury, Ob [8, 21]: 0%
- % visual injury, Ob [8, 23]: 0%
- % visual injury, Ob [8, 25]: 0%
- % visual injury, Ob ([8]; safener alone 5 g/ha): 0%
- % visual injury, Ob ([8]; safener alone 10 g/ha): 0%
- % visual injury, Ob ([8]; safener alone 20 g/ha): 0%
- % visual injury, Ob ([8]; safener alone 40 g/ha): 0%
- % visual injury, Ob ([9]; CQC-mexyl 20 g/ha alone): 0%
- % visual injury, Ob ([9]; CQC-mexyl 40 g/ha alone): 0%
- % visual injury, Ob ([9]; CQC-mexyl 80 g/ha alone): 0%
